According to PubChem BioAssay (NCI):
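Briefly, cells in 96-well plates were exposed to five compound concentrations for 48 h, and endpoints were estimated by linear interpolation. Here, GI50 denotes the concentration required for 50% inhibition of growth. TGI denotes the concentration required for complete inhibition of growth.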

Tests used:
Experiment in all cases: NCI anticancer screen, dose series, 48 h
NCI-H226 lung = tested on: NCI-H226 lung
NCI-H23 lung = tested on: NCI-H23 lung
NCI-H460 lung = tested on: NCI-H460 lung
NCI-H522 lung = tested on: NCI-H522 lung
NCI/ADR-RES ovarian = tested on: NCI/ADR-RES ovarian
OVCAR-3 ovarian = tested on: OVCAR-3 ovarian
OVCAR-4 ovarian = tested on: OVCAR-4 ovarian
OVCAR-5 ovarian = tested on: OVCAR-5 ovarian
OVCAR-8 ovarian = tested on: OVCAR-8 ovarian
PC-3 prostate = tested on: PC-3 prostate
RPMI-8226 leukemia = tested on: RPMI-8226 leukemia
RXF 393 renal = tested on: RXF 393 renal
SF-268 CNS = tested on: SF-268 CNS
SF-295 CNS = tested on: SF-295 CNS
SF-539 CNS = tested on: SF-539 CNS
SK-MEL-2 melanoma = tested on: SK-MEL-2 melanoma
SK-MEL-28 melanoma = tested on: SK-MEL-28 melanoma
SK-MEL-5 melanoma = tested on: SK-MEL-5 melanoma
SK-OV-3 ovarian = tested on: SK-OV-3 ovarian
SN12C renal = tested on: SN12C renal
SNB-19 CNS = tested on: SNB-19 CNS
SNB-75 CNS = tested on: SNB-75 CNS
SR leukemia = tested on: SR leukemia
SW-620 colon = tested on: SW-620 colon
T-47D breast = tested on: T-47D breast
TK-10 renal = tested on: TK-10 renal
U251 CNS = tested on: U251 CNS
UACC-257 melanoma = tested on: UACC-257 melanoma
UACC-62 melanoma = tested on: UACC-62 melanoma
UO-31 renal = tested on: UO-31 renal

CC(=O)c1ccc(Nc2nc(SCCC(C)C)nc(-c3ccc(F)cc3)c2C#N)cc1
TGI (NCI-H226 lung): 22.4 µM
GI50 (NCI-H23 lung): 5.86 µM
TGI (NCI-H23 lung): 39.6 µM
GI50 (NCI-H460 lung): 3.24 µM
TGI (NCI-H460 lung): 12.5 µM
GI50 (NCI-H522 lung): 24 µM
TGI (NCI-H522 lung): > 100 µM
GI50 (NCI/ADR-RES ovarian): 4.31 µM
TGI (NCI/ADR-RES ovarian): 27.5 µM
GI50 (OVCAR-3 ovarian): 13.3 µM
TGI (OVCAR-3 ovarian): 72.8 µM
GI50 (OVCAR-4 ovarian): 7.2 µM
TGI (OVCAR-4 ovarian): 93.3 µM
GI50 (OVCAR-5 ovarian): > 100 µM
TGI (OVCAR-5 ovarian): > 100 µM
GI50 (OVCAR-8 ovarian): 5.77 µM
TGI (OVCAR-8 ovarian): 25.5 µM
GI50 (PC-3 prostate): 24.7 µM
TGI (PC-3 prostate): > 100 µM
GI50 (RPMI-8226 leukemia): > 100 µM
TGI (RPMI-8226 leukemia): > 100 µM
GI50 (RXF 393 renal): 3.53 µM
TGI (RXF 393 renal): 16.8 µM
GI50 (SF-268 CNS): 4.85 µM
TGI (SF-268 CNS): 97.4 µM
GI50 (SF-295 CNS): 2.18 µM
TGI (SF-295 CNS): 5.13 µM
GI50 (SF-539 CNS): 3.69 µM
TGI (SF-539 CNS): 16 µM
GI50 (SK-MEL-2 melanoma): > 100 µM
TGI (SK-MEL-2 melanoma): > 100 µM
GI50 (SK-MEL-28 melanoma): 29.6 µM
TGI (SK-MEL-28 melanoma): > 100 µM
GI50 (SK-MEL-5 melanoma): 13.8 µM
TGI (SK-MEL-5 melanoma): 53.4 µM
GI50 (SK-OV-3 ovarian): 9.37 µM
TGI (SK-OV-3 ovarian): 26.2 µM
GI50 (SN12C renal): 24 µM
TGI (SN12C renal): > 100 µM
GI50 (SNB-19 CNS): 3.7 µM
TGI (SNB-19 CNS): 14.5 µM
GI50 (SNB-75 CNS): 2.06 µM
TGI (SNB-75 CNS): 21.6 µM
GI50 (SR leukemia): > 100 µM
TGI (SR leukemia): > 100 µM
GI50 (SW-620 colon): 16.7 µM
TGI (SW-620 colon): > 100 µM
GI50 (T-47D breast): 4.19 µM
TGI (T-47D breast): 74.5 µM
GI50 (TK-10 renal): 3.78 µM
TGI (TK-10 renal): 12.7 µM
GI50 (U251 CNS): 2.63 µM
TGI (U251 CNS): 7.87 µM
GI50 (UACC-257 melanoma): > 100 µM
TGI (UACC-257 melanoma): > 100 µM
GI50 (UACC-62 melanoma): 30.2 µM
TGI (UACC-62 melanoma): > 100 µM
GI50 (UO-31 renal): 5.01 µM
TGI (UO-31 renal): 25.7 µM
